The text below walks through data of the METLIN SMRT retention time set (Domingo-Almenara et al. 2019).

Structures are written as SMILES.

The data set can be described thus: gradient 5% acetonitrile 3 min, to 50% in 2 min, to 85% in 15 min, held 3 min, 100 µL/min. As to conditions: column: Zorbax Extend-C18 2.1 x 50 mm; eluents: water / acetonitrile, 0.1% formic acid. The gist of the method:
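Using water and acetonitrile that each contained 0.1% formic acid, mixtures of ~100 pure standards were separated at 100 μL/min on a Zorbax Extend-C18 column (2.1 × 50 mm, 1.8 μm). The HPLC fed a quadrupole time-of-flight mass spectrometer working in positive and negative ionization mode, with dead and dwell volumes of 40 μL and 900 μL. Data were acquired over 3 months. Retention time was read from computationally picked adduct peaks after manual inspection of each.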
The molecule `Cc1ccc(C)c(C(=O)Nc2cccn3nc(C(C)C)nc23)c1` yielded an RP-LC retention time of 1010 s.

In turn, `Cc1noc([C@@H]2CN(Cc3cc(F)cc(F)c3)C[C@H]2CO)n1` came in with an RP-LC retention time of 546 s.

On to `Cc1ccc(CNC(=O)C2(C)CCCN(C(=O)NCCC(C)C)C2)cc1` (stereo unspecified), for which the RP-LC retention time worked out at 910 s.

The molecule `COc1cc(OC)c(NC(=O)N(C)CCc2noc(COc3ccccc3)n2)cc1Cl` had an RP-LC retention time of 957 s.

Molecule `Cn1c(=O)c2c(NC(=O)c3ccco3)ccnc2n(C)c1=O` returned an RP-LC retention time of 757 s.

Regarding `CCc1noc(NC(C)=O)c1-c1ccc(OC)c(S(=O)(=O)Nc2ccc(OC)cc2OC)c1`, the RP-LC retention time was 777 s.

In the case of `COc1ccc(N2C=C(C(=O)N3CCOCC3)S(=O)(=O)c3ccc(F)cc32)cc1`, the RP-LC retention time was found to be 778 s.

On to `Cc1nc(-c2csc(S(=O)(=O)N3CCCC(C(=O)NCCc4ccc(Cl)cc4)C3)c2)no1` (stereo unspecified), for which the RP-LC retention time is 982 s.

Turning to `O=C(Cc1csc2nc(-c3cccc(Br)c3)cn12)Nc1ccc(F)cc1`, the RP-LC retention time is 959 s.

Take `O=c1[nH]cnc2scc(-c3ccc(Cl)cc3)c12`: the RP-LC retention time turned out to be 734 s.

`O=C(NCc1ccc(F)cc1)NCc1cccn1Cc1cccc(F)c1` registered an RP-LC retention time of 680 s.

In the case of `Cc1ccc2nc3c(c(C(=O)NC4CCCC4)c2c1)CCC3`, the RP-LC retention time worked out at 690 s.

Consider `O=S(=O)(c1ccc(F)cc1)N1CCc2nc(-c3ccc(F)cc3)ncc2C1`, for which the RP-LC retention time was found to be 1070 s.

For `O=C(C1CC1)N1CCC(c2noc(-c3ccccc3)n2)C1` (stereo unspecified), the RP-LC retention time came out at 956 s.

In the case of `COc1cc(-c2nnc(-c3ccc(C)c(S(=O)(=O)N4CCOCC4)c3)o2)cc(OC)c1OC`, the RP-LC retention time is 891 s.

Regarding `COc1cc(-n2c(=O)c3ccccc3n(Cc3ccccc3C#N)c2=O)cc(OC)c1OC`, the RP-LC retention time stood at 805 s.

The molecule `CCC(Oc1ccc(Cl)cc1)C(=O)OC1CC2CCC(C1)N2C` (stereo unspecified) came in with an RP-LC retention time of 815 s.

`COCCNC(=O)c1ccc(CS(=O)Cc2ccccc2Cl)o1` (stereo unspecified) displayed an RP-LC retention time of 664 s.

`CCCn1cc(S(=O)(=O)NCc2ccc(F)cc2Cl)c2cccnc21` had an RP-LC retention time of 948 s.

Consider `O=C(Nc1cccc(Cl)c1F)N1CCC(N2CC(F)(F)C[C@H]2COCC2CC2)CC1`, for which the RP-LC retention time came to 762 s.

As to `Cc1ccc(Cl)cc1NS(=O)(=O)c1cc2c(s1)CCN(C(=O)C1CC1)C2`, the RP-LC retention time amounted to 901 s.

The molecule `CCc1noc(NC(C)=O)c1-c1ccc(C)c(S(=O)(=O)Nc2cccc(C)c2C)c1` registered an RP-LC retention time of 897 s.

For the molecule `O=C(Cc1ccsc1)N1CCCn2nc(-c3ccc(Cl)cc3)cc2C1`, the RP-LC retention time was 931 s.

Molecule `COc1ccc(N2CCN(c3cc(C)nc4nc(-c5ccc(C)cc5)nn34)CC2)cc1` gave an RP-LC retention time of 1010 s.

In turn, `O=S(=O)(c1ccc(F)cc1F)N1CCC(CN2CCCCCC2)CC1` came in with an RP-LC retention time of 648 s.

With `COc1ccc(N2CCN(C(=O)c3c(OC)cc(=O)n4c3CCCC4)CC2)cc1`, the RP-LC retention time was determined as 660 s.

Turning to `Cc1sc(NC(=O)C(C)C)nc1-c1ccc2c(c1)N(C)C(=O)CO2`, the RP-LC retention time was 831 s.

As for `CC(C)c1ccc(C(=O)N2CCC(COc3ccc(C(=O)NC4CC4)cc3)CC2)cc1`, the RP-LC retention time stood at 947 s.

Turning to `CC(C)n1cnc2ccc(-c3noc(-c4cccc(F)c4)n3)cc21`, the RP-LC retention time is 810 s.

As to `CCCN(c1ccccc1F)S(=O)(=O)c1ccc2c(c1)N(C(C)=O)CCCS2`, the RP-LC retention time was found to be 993 s.

`CCc1cccc(NS(=O)(=O)c2cc(-c3[nH]ncc3C(=O)N3CCCCC3)oc2C)c1` yielded an RP-LC retention time of 819 s.

`O=C(NCc1ccc(F)cc1F)C1CCc2nc(N3CCOCC3)ncc2C1` (stereo unspecified) came in with an RP-LC retention time of 682 s.

`Cn1ncc2c3ccccc3n(CC(=O)NCCN3CCCCC3)c2c1=O` came in with an RP-LC retention time of 595 s.

In turn, `COc1ccc(-c2nc3cc(C)ccn3c2NC(=O)c2ccc(Br)cc2)cc1` gave an RP-LC retention time of 727 s.

The molecule `C=CCn1c(C(=O)N2CCN(c3ccccn3)CC2)cc2cc(S(=O)(=O)N(C)C)ccc21` gave an RP-LC retention time of 649 s.

On to `CCCCNC(=O)CCC(=O)N1CC2CCCN2c2ccccc21` (stereo unspecified), for which the RP-LC retention time turned out to be 837 s.

In the case of `CCOc1ccc(-c2noc(CN3C(=O)COc4ccc(C)cc43)n2)cc1OC`, the RP-LC retention time was found to be 1010 s.

With `O=C(CSCC(=O)c1ccccc1)c1ccccc1`, the RP-LC retention time is 880 s.

With `CC(Nc1nc(N2CCCC2)nc2ccccc12)c1ccccc1` (stereo unspecified), the RP-LC retention time worked out at 781 s.

`O=C1CN(C(=O)CN2CCCCC2)C(c2ccccc2)c2cc(Br)ccc2N1` (stereo unspecified) registered an RP-LC retention time of 656 s.

For the molecule `Cn1cnc(S(=O)(=O)N2CCC(C(=O)NC3CCCCC3)CC2)c1`, the RP-LC retention time was 659 s.

Molecule `CCc1cccc(NC(=O)c2c(C)oc3nc(C)nc(N4CCCC4)c23)c1` registered an RP-LC retention time of 861 s.

Consider `COc1ccccc1-c1cc(C(N)=O)c2cccc(C)c2n1`, for which the RP-LC retention time is 828 s.

As to `Cc1cc(OCC(=O)NCc2ccc3c(c2)OCO3)nc(N2CCCCCC2)n1`, the RP-LC retention time came out at 594 s.

`CCn1cc(-c2nc(CC(=O)Nc3ccc(OC)c(Cl)c3)cs2)c2cccnc21` returned an RP-LC retention time of 918 s.

Turning to `O=C(NCCc1ccco1)c1ccc2c(c1)nc1n2CCCCC1`, the RP-LC retention time was determined as 611 s.

`CN1C(=O)c2cc(S(=O)(=O)NCc3ccccc3F)ccc2Oc2cccnc21` registered an RP-LC retention time of 871 s.

`O=C(COc1ccc(-c2nnc3n2CCCC3)cc1)N1CCc2ccccc21` yielded an RP-LC retention time of 790 s.

The molecule `COc1ccc(-c2c(C)noc2NC(C)=O)cc1S(=O)(=O)Nc1ccccc1Cl` gave an RP-LC retention time of 783 s.

With `COc1cccc(C(O)CN2CCN(c3ccc(F)cc3)CC2)c1` (stereo unspecified), the RP-LC retention time amounted to 660 s.

As for `O=C(NCC1CCCO1)c1ccc(Nc2c(-c3ccccc3)nc3cnccn23)cc1` (stereo unspecified), the RP-LC retention time worked out at 1140 s.

The molecule `CS(=O)(=O)c1ccc(Nc2nc(C(=O)NCC3CCCO3)cs2)cc1` (stereo unspecified) had an RP-LC retention time of 636 s.

In turn, `O=C(CC(c1ccccc1)c1ccccc1)N1CC(c2nc(-c3ccccc3)no2)C1` returned an RP-LC retention time of 1020 s.

The molecule `CC(C)NC(=O)c1ccc(OCC2CCN(C(=O)c3cccs3)CC2)cc1` registered an RP-LC retention time of 757 s.

As to `CC1CCN(c2nc(=O)n(CC(=O)Nc3ccc(C(C)C)cc3)c3ccccc23)CC1`, the RP-LC retention time worked out at 981 s.

Take `CCNS(=O)(=O)c1ccc(-c2c(C)noc2C)cc1`: the RP-LC retention time turned out to be 762 s.

On to `Cc1nc2ccc(Cl)cn2c1[N+](=O)[O-]`, for which the RP-LC retention time was 820 s.

The molecule `CCCCn1c(=O)c2ccccc2n(Cc2nc(-c3ccc4c(c3)OCO4)no2)c1=O` had an RP-LC retention time of 1130 s.

In the case of `Cc1ccc(Sc2nccnc2N2CCCC(C(=O)NC(C)c3ccccc3)C2)cc1` (stereo unspecified), the RP-LC retention time was 1140 s.

In the case of `CC(C)C(=O)Nc1cnc(-c2ccccc2)nc1`, the RP-LC retention time was 814 s.

As for `O=C(c1ccc(F)c(F)c1)N1CCN(c2nc(CN3CCCC3)cs2)CC1`, the RP-LC retention time stood at 635 s.

For `CN(CCCC(=O)O)S(=O)(=O)c1ccc(N)cc1`, the RP-LC retention time turned out to be 598 s.

Molecule `CCc1ccc(-c2csc(NC(=O)C3CCCO3)n2)cc1` (stereo unspecified) came in with an RP-LC retention time of 1020 s.

For the molecule `CCc1ccc(N2C=C(C(=O)OC)S(=O)(=O)c3ccccc32)cc1`, the RP-LC retention time is 942 s.

In the case of `O=c1ccc(S(=O)(=O)N2CCCC2)cn1Cc1ccc(F)cc1`, the RP-LC retention time turned out to be 820 s.

As for `Nc1nc(SCC(=O)Nc2cccc(C(F)(F)F)c2)n[nH]1`, the RP-LC retention time was found to be 637 s.

In turn, `O=C(NCCCn1cccc1)c1cc(-c2ccccc2)on1` had an RP-LC retention time of 888 s.

`COc1ccc(CNC(=O)c2cn3ccc(C)cc3n2)cc1OC` displayed an RP-LC retention time of 604 s.

Consider `CCSc1nc2ccc(NS(=O)(=O)c3ccc(F)cc3Cl)cc2s1`, for which the RP-LC retention time was 1110 s.

For the molecule `CCOc1ccc(NC(=O)c2[nH]c(C)c(S(=O)(=O)N3CCCCC3)c2C)cc1`, the RP-LC retention time is 979 s.

Consider `CCn1cc(CC(=O)NCC2CC2)c2cccnc21`, for which the RP-LC retention time stood at 624 s.

Molecule `CCCN1C(=O)COc2ccc(-c3noc(C(C)Oc4ccccc4)n3)cc21` (stereo unspecified) had an RP-LC retention time of 1160 s.

In the case of `CCC(=O)N1CCc2nc(N3CCN(C(=O)CCOC)CC3)sc2C1`, the RP-LC retention time was found to be 875 s.

As for `COc1ccc(OCc2noc(CNC(=O)C(C)n3nnc4ccccc4c3=O)n2)cc1` (stereo unspecified), the RP-LC retention time turned out to be 768 s.

`CCOC(=O)N1CCN(C(=O)c2cccc([N+](=O)[O-])c2C)CC1` displayed an RP-LC retention time of 695 s.

For `CCc1noc(-c2cnc3nc(C)ccc3c2Nc2ccc3c(c2)OCCO3)n1`, the RP-LC retention time amounted to 731 s.

As to `Cc1cc(=O)n(CC(=O)Nc2ccc(F)c(F)c2)c(N2CCCCC2)n1`, the RP-LC retention time worked out at 700 s.

With `CNC(=O)c1ccc(-c2nc3cc(NS(=O)(=O)c4cc(C)c(C)cc4C)ccc3n2C)cc1`, the RP-LC retention time came to 713 s.

Consider `COc1ccc(CCNCC(O)Cn2c3c(c4ccccc42)CCN(C)C3=O)cc1OC` (stereo unspecified), for which the RP-LC retention time was determined as 666 s.

In turn, `CCOc1ccc2nc(NC(=O)c3cc(=O)c(OCc4ccccc4)cn3C)sc2c1` returned an RP-LC retention time of 741 s.

In turn, `Cc1ccsc1C(=O)Nc1cccc(-c2nnc3n2CCCC3)c1` gave an RP-LC retention time of 640 s.
